According to patent publication US20180008593A1 (Purdue Pharma L.P., priority 2005, published 2018):

Legend:
[1] = system: patients with severe chronic pain; test: Incidence and duration of diarrhea and discontinuations due to diarrhea, Example 1; details: naloxone 0 mg
[2] = system: oxycodone-pump and vehicle-pump implanted rats; test: Oxycodone tolerance: tail withdrawal dose response in pump-implanted rats, Example 5; assay type: in vivo, rat
Description: Animals were randomized and acclimated for one week as described in Section 3.1. Vehicle control pumps contained sterile filtered isotonic saline. Alzet 2ML 1 osmotic mini pumps were loaded with oxycodone solution as described in “Alzet Osmotic Minipumps: Technical Information Manual” from DURECT Corp., Cupertino, Calif. The loaded pumps were primed by placing them in sterile isotonic saline at 37° […] for 3-h before implanting them in the rats. The rats were briefly anesthetized with isoflurane USP (Henry Schein, Inc. Melville, N.Y., U.S.A.) for implantation of 2ML 1 osmotic minipumps that deliver at a rate […]. After induction of anesthesia (as noted by the absence of the righting reflex and foot pinch response). Sterile scissors were used to make a 1.5 cm incision that was expanded under the skin with hemostats in a caudal direction to open the subcutaneous space for the pump. A sterile 2ML 1 pump was then inserted under the skin and moved to the dorsum. The rats were returned to their home cages and monitored until they completely recovered from anesthesia. Pump delivery began at 4-h (DU REGT Corp.) allowing the rats 1-h to recover from the anesthesia. Therefore, time zero began 1-h after implantation of the pumps. The rats were monitored daily for signs of distress, drug toxicity, or problems with the surgical site.
If the value was below 50% then the predicted level of tolerance was greater than 10-fold. The infusion dose that elicited approximately a 50% MPE with the challenge was selected as the 10-fold model of tolerance.
After this, the individual groups (8/group) were challenged with increasing doses of oxycodone for construction of a dose-response curve for calculation of the ED80 value. Potency-ratio determinations were made between the oxycodone-pump and vehicle-pump groups.

[3] = system: experimental human pain model, healthy volunteers; test: Pain-related evoked potentials (EEG) after CO2 stimulation of the nasal mucosa, Example 4; assay type: in vivo
Description: This was a single site, single dose, double blind, placebo-controlled, 5-treatment, 5-period, randomized, balanced crossover study in healthy adult male and female subjects. […] Subjects were allocated each of the 5 treatments described in the synopsis according to a random allocation schedule (RAS). There was a 7-day washout period
Analgesic effects were assessed by means of an experimental human pain model based on the chemosomatosensory pain-related cortical potentials (CSSEPs) and pain-ratings after specific phasic nociceptive stimulation of the nasal mucosa with gaseous CO2. In addition, intensity estimates of tonic pain produced by stimulation of the nasal mucosa with dry air at controlled flow and temperature were employed.
Within the present pain model, the following were used as indicators of analgesia: • post-treatment decrease in pain-ratings and/or • post-treatment decrease in amplitudes of pain-related evoked potentials and/or • post-treatment increase in latencies of pain-related evoked potentials, relative to the pretreatment values.
1. Base-to-peak amplitudes P1, N1 and P2, peak-to-peak amplitudes P1 N1 and N1P2 of pain related evoked potentials 2. Latencies P1, N1 and P2 of pain-related evoked potentials 3. Intensity estimates of phasic (C02-) pain 4. Intensity estimates of tonic pain
In the first 20 minutes, 40 phasic CO2-stimuli were applied (20 stimuli at a concentration of 70% and 20 at a concentration of 60%, interstimulus interval 30 s). In response to these stimuli, pain-related potentials and subjective intensity estimates were recorded.
CO2-stimuli were mixed in a constantly flowing air stream with controlled temperature (36.5° C.) and humidity (80% relative humidity) presented to the left nostril (stimulus duration 200 ms, interstimulus interval 30 s). […] During intervals between phasic stimuli subjects performed a simple tracking task on a video screen. Using a joystick, they had to keep a small square inside a larger one that randomly moved around.
The EEG was recorded from 5 positions of the international 10/20 system (Cz, C3, C4, Fz and Pz; see FIG. 40) referenced to linked earlobes (A1+A2). Possible eye blink artifacts were monitored from an additional site (Fp2/A1+A2). Stimulus linked EEG segments of 2040 ms duration were sampled with a frequency of 250 Hz (band pass 0.2-30 Hz, pre-stimulus period 512 ms). The recorded analog EEG segments were then converted to digital and filed electronically. The average value for each recording position was separately calculated, discarding all eye blink contaminated records. By this procedure pain-related evoked potentials were obtained in response to the painful CO2 stimuli. Base to peak amplitudes P1, N1 and P2, the peak to peak amplitudes P1 N1 and N1 P2 and the latencies of P1, […] and P2 were measured. Wherever the time of measurement was used in the data analysis, the mid-time of a session was taken. FIG. 40 presents the components of the pain-related evoked potentials.

male Sprague-Dawley rats = test: 51° C. warm-water tail withdrawal test, i.v. oxycodone in opioid naive rats, Example 5
[4] = 0.3 mg/kg oxycodone free-base i.v.

## COc1ccc2c3c1O[C@H]1C(=O)CC[C@@]4(O)[C@@H](C2)N(C)CC[C@]314 [Oxycodone, oxycodone]
[1]; daily oxycodone 40 mg
  Discontinuations due to Diarrhea, n/N: 0/17
  Incidence of Discontinuations due to Diarrhea: (0.0%)
[1]; daily oxycodone 60 mg
  Discontinuations due to Diarrhea, n/N: 0/17
  Incidence of Discontinuations due to Diarrhea: (0.0%)
[1]; daily oxycodone 80 mg
  Discontinuations due to Diarrhea, n/N: 0/16
  Incidence of Discontinuations due to Diarrhea: (0.0%)
[2]; 7-day oxycodone infusion […] vs vehicle pump
  Rightward shift in the oxycodone dose-response curve (tolerance): 8.5 fold
[2]; Rattus norvegicus, iv, i.v. oxycodone, vehicle-pump implanted rats, read-out: ED50 value (antinociception)
  ED50: 0.32 mg/kg
[2]; after s.c. oxycodone infusion […] for 7 days
  % MPE on challenge with […] oxycodone: ~50 % MPE
[3]; 60% CO2, 20 mg oxycodone
  Magnitude of reduction of amplitude P1N1 at C4 compared to baseline: 35.3%
[3]; 60% CO2, recording position C4
  Amplitude P1N1 of pain-related evoked potentials: significant compared to placebo
  Latency P1 of pain-related evoked potentials: significant compared to placebo
[3]; 60% CO2, recording position Pz
  Latency P1 of pain-related evoked potentials: significant compared to placebo
[3]; 70% CO2, recording position C3
  Latency P1 of pain-related evoked potentials: significant compared to placebo
[3]; 70% CO2, recording position Cz
  Latency P1 of pain-related evoked potentials: significant compared to placebo
  Latency P2 of pain-related evoked potentials: significant compared to placebo
[3]; 70% CO2, recording position Fz
  Latency P1 of pain-related evoked potentials: significant compared to placebo
[3]; 70% CO2, recording position Pz
  Latency P1 of pain-related evoked potentials: significant compared to placebo
  Latency P2 of pain-related evoked potentials: significant compared to placebo
Male Sprague-Dawley rats; [4]
  First test point at which antinociception was present: 2.5 min
  Obvious signs (sedation, motor control, respiration, toxicity): no obvious signs were noted
  Time antinociception stayed significantly above baseline latencies: 40 min
Male Sprague-Dawley rats; 0.3 mg/kg oxycodone free-base i.v., 51° C. tail withdrawal
  Peak time of antinociception: 10 min
Male Sprague-Dawley rats; oxycodone free-base i.v., tested at 10-min
  ED80 value (antinociception): 0.41 mg/kg
